In patent publication US20220096509A1, “Reformulating Hospital Gentamicin to reduce the risk of hearing loss while maintaining antimicrobial activity” (priority 2019, published 2022):
“And” between values parts separate entries of the source, which are not always exact repeats. Equal entries are not always repeated. “Also recorded” adds a separate entry of the source. Where two headings read alike, the source gives them in different places.

Tests used:
[1] = test system: S. aureus, E. coli, K. pneumoniae, P. aeruginosa strains; test: Antimicrobial breadth and potency (MIC) across 40 bacterial strains; type: cell-based
From the text: (§1) The colors represent different species, the numbers in the columns refer to the number of individual strains inhibited, where black=S. aureus, grey=E. coli, blue=K. pneumoniae, white=P. aeruginosa. […] (2B) The MIC values for each strain (diamond symbols) split by species, where Hospital=red, C1=orange, blue=C1a, cyan=C2, green=C2a, purple=C2b (grey scale only). Filled symbols indicate strains with antimicrobial resistance. The box indicates the 25-75 percentiles, stars indicate geometric means, *=P<0.05, **=P<0.01 tested using Mann Whitney U Non-Parametric analysis. […] (2C) The antimicrobial breadths of the impurities relative to a hospital bottle. […] (2D) The MIC values for each strain split by species.
(§2) The antimicrobial activity of the main components of gentamicin were studied relative to a single hospital bottle (gentamicin mixture) from Stanford University Hospital.

S. aureus = type: cell-based; conditions: for antimicrobial potency relative to hospital bottle: Mann Whitney U Test
From the text: as §1, §2

P. aeruginosa = test: MIC against P. aeruginosa strains; type: cell-based
From the text: as §1, §2

rat cochlear hair cells [2] = conditions: for EC50: read-out: EC50±SE, hair cell survival (ototoxicity)
E. coli = test: MIC against E. coli strains; type: cell-based; conditions: Mann Whitney U Test
From the text: (§3) […]. The colors represent different species, the numbers in the columns refer to the number of individual strains inhibited, where black=S. aureus, grey=E. coli, blue=K. pneumoniae, white=P. aeruginosa. The hospital bottle inhibits 35/40 strains tested, with the C-components inhibiting 31-35 strains. (2B) The MIC values for each strain (diamond symbols) split by species, where Hospital=red, C1=orange, blue=C1a, cyan=C2, green=C2a, purple=C2b (grey scale only). Filled symbols indicate strains with antimicrobial resistance. The box indicates the 25-75 percentiles, stars indicate geometric means, *=P<0.05, **=P<0.01 tested using Mann Whitney U Non-Parametric analysis. […] There are also some differences between individual components in S. aureus and P. aeruginosa. (2C) The antimicrobial breadths of the impurities relative to a hospital bottle. The hospital bottle inhibits 35/40 strains tested, with the impurities Gent B, Gent A, Gent X and G418 inhibiting 15-21 strains. One impurity, Sisomicin inhibited 35/40 strains. (2D) The MIC values for each strain split by species. […].

K. pneumoniae = test: MIC against K. pneumoniae strains; type: cell-based; conditions: Mann Whitney U Test
From the text: as §3

rat cochlear hair cells [3] = test: tissue or blood; conditions: read-out: EC50±SE, hair cell survival (ototoxicity)
[4] = mid-apical region of the cochlea, n>5 per data point, logarithmic function best fit

Compound: CN[C@@H]1[C@@H](O)[C@@H](O[C@@H]2[C@@H](O)[C@H](O[C@H]3O[C@H]([C@@H](C)NC)CC[C@H]3N)[C@@H](N)C[C@H]2N)OC[C@]1(C)O [C1, gentamicin C1]
- antimicrobial potency among the components [1]: lowest antimicrobial potency
- antimicrobial potency relative to hospital bottle (S. aureus; S. aureus): less potent than the hospital bottle; also recorded: less antimicrobial than the hospital bottle
- Geomean MIC (S. aureus; S. aureus, n=10 strains): 0.53 µg/mL and 0.54 µg/mL
- Geomean MIC (P. aeruginosa; P. aeruginosa, n≥8 strains): 1.52 µg/mL
- ototoxicity relative to hospital bottle (rat cochlear hair cells [2]): not significantly different from the hospital bottle
- EC50 (rat cochlear hair cells [2]; [4]): 755 ± 60 µM

Compound: CN[C@@H]1[C@@H](O)[C@@H](O[C@@H]2[C@@H](O)[C@H](O[C@H]3O[C@H]([C@@H](C)N)CC[C@H]3N)[C@@H](N)C[C@H]2N)OC[C@]1(C)O [C2, gentamicin C2]
- ototoxicity among the drug components (rat cochlear hair cells [2]): most ototoxic component
- EC50 (rat cochlear hair cells [2]; [4]): 402 ± 38 µM

Compound: CN[C@@H]1[C@@H](O)[C@@H](O[C@@H]2[C@@H](O)[C@H](O[C@H]3O[C@H]([C@H](C)N)CC[C@H]3N)[C@@H](N)C[C@H]2N)OC[C@]1(C)O [C2a, gentamicin C2a]
- ototoxicity relative to hospital bottle (rat cochlear hair cells [2]): not significantly different from the hospital bottle
- EC50 (rat cochlear hair cells [2]; [4]): 614 ± 69 µM

Compound: CNC[C@@H]1CC[C@@H](N)[C@@H](O[C@H]2[C@H](O)[C@@H](O[C@H]3OC[C@](C)(O)[C@H](NC)[C@H]3O)[C@H](N)C[C@@H]2N)O1 [C2b, gentamicin C2b]
- ototoxicity relative to hospital bottle (rat cochlear hair cells [2]): less ototoxic than the hospital bottle
- EC50 (rat cochlear hair cells [2]; [4]): 1200 ± 114 µM

Compound: CN[C@@H]1[C@@H](O)[C@@H](O[C@@H]2[C@@H](O)[C@H](O[C@H]3O[C@H]([C@@H](C)O)[C@@H](O)[C@H](O)[C@H]3N)[C@@H](N)C[C@H]2N)OC[C@]1(C)O [G418, geneticin, reference compound]
- ototoxicity relative to hospital bottle (rat cochlear hair cells [2]): more ototoxic at lower doses than the hospital but requires a higher dose to kill all hair cells than the hospital

Compound: CN[C@@H]1[C@@H](O)[C@@H](O[C@@H]2[C@@H](O)[C@H](O[C@H]3O[C@H](CN)[C@@H](O)[C@H](O)[C@H]3O)[C@@H](N)C[C@H]2N)OC[C@]1(C)O [Gent B]
- antimicrobial potency relative to hospital bottle ([1]; all species tested, P<0.05, n≥8 strains): significantly less potent than the hospital bottle

Compound: CN[C@@H]1[C@@H](O)[C@@H](O[C@@H]2[C@@H](O)[C@H](O[C@H]3OC(CN)=CC[C@H]3N)[C@@H](N)C[C@H]2N)OC[C@]1(C)O [Sisomicin]
- number of strains inhibited (antimicrobial breadth) ([1]; 40 strains tested, breadth defined as MIC value ≤4μg/ml): 35/40
- antimicrobial potency relative to hospital bottle (S. aureus; S. aureus): more potent than the hospital
- antimicrobial potency relative to hospital bottle (P. aeruginosa; P. aeruginosa, Mann Whitney U Test): more potent than the hospital
- antimicrobial potency relative to hospital bottle (E. coli): equi-potent to the hospital
- antimicrobial potency relative to hospital bottle (K. pneumoniae): equi-potent to the hospital
- ototoxicity relative to hospital bottle (rat cochlear hair cells [2]): more ototoxic than the hospital
- EC50 (rat cochlear hair cells [3]): 212 ± 7 µM

Compound: gentamicin C1a
- Geomean MIC (S. aureus): 0.29 µg/mL
- antimicrobial potency relative to C1 component (S. aureus): more antimicrobial than the C1 component
- Geomean MIC (P. aeruginosa): 0.71 µg/mL
- antimicrobial potency relative to C1 component (P. aeruginosa): more antimicrobial than the C1 component
- EC50 (rat cochlear hair cells [2]): 816 ± 18 µM
